Values joined by “and” are separate entries in the source; they are usually repeats but may differ in a detail not shown here. Equal entries are not always repeated.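 Values below derive from 48-hour exposures of cells grown in 96-well plates, with endpoints linearly interpolated between the two concentrations bracketing the appropriate inhibition level. GI50 = concentration required for 50% inhibition of growth.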 Active and inactive are the calls of the source. Cut-off read from the data, not from the text of the source: active = GI50 up to about 1.1 µM and inactive = higher.
Legend:
Experiment in all cases: inhibition of tumour cell growth, NCI panel, 48 h
BT-549 = test system: BT-549
Hs-578T = test system: Hs-578T
T47D = test system: T47D
DLD-1 = test system: DLD-1
DMS-114 = test system: DMS-114
HOP-18 = test system: HOP-18
KM-20L2 = test system: KM-20L2
SNB-78 = test system: SNB-78

Measured: GI50

Nc1ccccc1.O=P(O)(OP(=O)(O)c1ccccc1)c1ccccc1
inactive: BT-549 > 100 µM | Hs-578T > 100 µM | T47D > 100 µM

Cc1[nH]n(-c2ccc(S(=O)(=O)O)cc2)c(=O)c1/N=N/c1ccccc1
inactive: BT-549 > 100 µM | Hs-578T > 100 µM | T47D > 100 µM

CN(C)CCOc1cccc2c1C(=O)c1ccccc1C2=O
inactive: DLD-1 8.34 µM | DMS-114 10.4 µM | HOP-18 16 µM | KM-20L2 13.9 µM | SNB-78 13.6 µM

COC(=O)C1Cc2c([nH]c3ccccc23)C(c2ccccc2O)N1 (centres undefined)
inactive: DLD-1 42.9 µM | DMS-114 58.1 µM | HOP-18 > 100 µM | KM-20L2 95.5 µM

N#CC(C#N)=Cc1ccc2c(c1)OC(Cl)O2 (centres undefined)
inactive: T47D 32.4 µM

CC(C)(C)c1cc(C(=O)O)c2c(c1)C(=O)OC2(c1ccccc1)c1ccccc1C(=O)O (centres undefined)
inactive: DLD-1 > 100 µM | DMS-114 > 100 µM | HOP-18 > 100 µM | KM-20L2 > 100 µM

C[N+]1(CCC[N+]2(C)CC3C4C=CC(CC4)C3C2)CCOCC1 (centres undefined)
inactive: BT-549 > 100 µM | Hs-578T > 100 µM | T47D > 100 µM

C=CCc1ccccc1CC1(OCC)OC(=O)c2ccccc21 (centres undefined)
inactive: BT-549 96.8 µM | Hs-578T > 100 µM | T47D 76.9 µM

O=C1c2ccccc2N2OC3C4CCC(C4)C3C12c1ccccc1 (centres undefined)
inactive: DLD-1 18.3 µM | DMS-114 62.5 µM | HOP-18 > 100 µM | KM-20L2 98.2 µM

COc1cccc(C2CC(C)(N3CCCC3)Oc3cc4c(cc32)OCO4)c1O (centres undefined)
inactive: BT-549 16.9 µM | Hs-578T 21.5 µM | T47D 30.8 µM

O=C(/C=C/c1ccccc1Cl)c1ccccc1Cl
inactive: DLD-1 17.5 µM | DMS-114 19.9 µM | HOP-18 28.1 µM | KM-20L2 18.1 µM | SNB-78 22.4 µM

Cc1ccc(C(=O)N/N=C(\N=N\c2ccccc2)c2ccc(N(C)C)cc2)cc1
inactive: BT-549 > 100 µM

Cc1cc(OCc2nnc3n2N=C(c2cc(F)c(Cl)cc2Cl)/C(=C/c2ccc(Cl)cc2)S3)ccc1Cl
inactive: Hs-578T 15.2 µM | T47D 20.4 µM

CC(=O)N1C(C(=O)NNc2ccccc2)CSC1c1ccccc1 (centres undefined)
inactive: BT-549 > 100 µM | Hs-578T > 100 µM | T47D 69.7 µM

O=c1cc(C(F)(F)F)c2cc3c(cc2o1)NCCC3
inactive: BT-549 > 100 µM | Hs-578T 18.5 µM | T47D 9.46 µM

C=C(C(=O)O)[C@@H]1C[C@@H]2O[C@H]1[C@@H](O)[C@@H](C)CCCC(C)=CCC[C@@]2(C)O
inactive: Hs-578T > 100 µM | T47D > 100 µM and > 84.9 µM

CC1(C)OC(=O)C(C#N)=C1C[n+]1ccccc1
inactive: Hs-578T > 10 µM | T47D > 10 µM

c1ccc(C2=NN3CN(N2)c2ccccc2OCCCOc2ccccc23)cc1
inactive: DMS-114 > 100 µM | KM-20L2 > 100 µM | SNB-78 > 100 µM

COc1ccc(NC(=O)Oc2cc(C)c3ccc(=O)cc-3o2)c(OC)c1.COc1ccc(NC(=O)Oc2ccc3c(C)cc(=O)oc3c2)c(OC)c1
inactive: Hs-578T > 100 µM | T47D > 100 µM

CN(C)c1ccc(C2CC(c3ccc4ccccc4c3O)=NN2c2ccc([N+](=O)[O-])cc2[N+](=O)[O-])cc1 (centres undefined)
inactive: BT-549 91 µM | Hs-578T 48.8 µM | T47D 68.1 µM

S=C(Nc1ccc(/N=N/c2ccccc2)cc1)SCc1ccccc1
inactive: BT-549 18.3 µM | Hs-578T 22.2 µM | T47D 28.3 µM

O=C(O)c1ccc(OCc2nc3cc(C(F)(F)F)ccc3nc2-c2ccccc2)cc1
inactive: BT-549 75.3 µM | Hs-578T 43.5 µM | T47D 50.7 µM

N#CC1C(C#N)C2(c3ccccc3)C(c3ccccc3)=NN(c3ccccc3)CC12 (centres undefined)
inactive: DLD-1 > 100 µM | DMS-114 59.4 µM | HOP-18 > 100 µM | KM-20L2 > 100 µM | SNB-78 > 100 µM

CCN(CC)CCCNc1nncc2cc3c([nH]c4ccc(OC)cc43)c(C)c12
inactive: BT-549 16.3 µM | Hs-578T 10.4 µM | T47D 11.8 µM

NC(=S)NS(=O)(=O)c1ccc(F)cc1F
inactive: BT-549 > 100 µM | Hs-578T > 100 µM | T47D > 100 µM

O=C1C2C=CC(C2)C(c2ccc(O)cc2)N1O (centres undefined)
inactive: DLD-1 > 100 µM | KM-20L2 > 100 µM | SNB-78 > 100 µM

CC(C)(C)OC(=O)Nc1nnc(S(N)(=O)=O)s1
inactive: BT-549 > 100 µM | Hs-578T > 100 µM | T47D > 100 µM

CCN/C(=N\Nc1ccc([N+](=O)[O-])cc1)P(=O)(OC(C)C)OC(C)C
inactive: DLD-1 > 100 µM | DMS-114 > 100 µM | KM-20L2 > 100 µM | SNB-78 > 100 µM

CN1C(=O)CC2CCC(=O)N2c2cccnc21 (centres undefined)
inactive: BT-549 > 100 µM | Hs-578T > 100 µM | T47D > 100 µM

Reference: ChEMBL document CHEMBL1201862, “PubChem BioAssay data set” (2004)
